# Laboratory results as given in patent publication EP0802730B1, “PESTICIDAL COMPOUNDS” (BTG INTERNATIONAL LIMITED, priority 1995, dated 1996).
# Like-named read-outs stand apart in the source and are kept apart here. Marks after values point to notes of the source that are not given here.
# Legend:
# Type in all cases: in vivo
# [1] = system: Mustard beetles (PC) (Phaedon cochleariae Fab); conditions: for PC LD50 (µg/insect): Tables 10, 13, 14
# Method: A one microlitre drop of an acetone solution of the test compound was applied ventrally to adult mustard beetles using a micro drop applicator. The treated insects were maintained for 48 hours after which time kill was assessed. Two replicates each of 20 to 25 mustard beetles were used at each dose level and 5 dose levels were treated comparably. LD50 values were calculated as for houseflies.
# [2] = system: Mites (TU) (Tetranychus urticae), susceptible strain (GSS); experiment: Mite immersion test, susceptible strain GSS
# Method: 25 adult female mites were immersed in 35 µl of a solution of the test compound in a 1:4 acetone-water mixture for 30 seconds. The treated insects were maintained at 21° ± 2°C and kill was assessed 72 hours after treatment. […] Three replicates of 25 mites each were used at each dose rate and 5 or 6 dose rates were used per compound under test. LC50 values were calculated in ppm of the solution of the test compound per insect. The test was carried out using a susceptible strain of mites (GSS) supplied by Schering, AG, Berlin.
# [3] = system: Whitefly (BT) (Bemisia tabaci), susceptible strain (SUD-S); experiment: Whitefly residual film vial test, susceptible strain SUD-S
# Method: Acetone solutions (0.100 ml) of the test compounds were placed in 10 ml glass vials and evaporated with rotation to deposit a film of the compound. Thirty adult whiteflies were placed inside the vial, then after 60 minutes, the treated insects were transferred onto untreated cotton leaf discs which were kept moist on a bed of agar gel. The temperature was maintained at 25°C and mortality assessed after 48 hours. Three replicates were used at each of 5 to 7 dose levels per compound.
# [4] = system: Houseflies (MD) (Musca domestica); conditions: for MD LD50 (µg/insect): Tables 10, 13, 14, NA = lack of detectable activity
# Method: Female flies were treated on the thorax with a one microlitre drop of test compound dissolved in acetone. Two replicates of 15 flies were used at each dose rate and 6 dose rates were used per compound under test. After treatment, the flies were maintained at a temperature of 20° ± 1°C and kill was assessed 24 and 48 hours after treatment. LD50 values were calculated in micrograms of test compound per fly (see Sawicki et al., Bulletin of the World Health Organisation, 35, 893 (1966) and Sawicki et al., Entomologia and Exp. Appli 10, 253, (1967).
# [5] = system: Myzus persicae, susceptible strain (US1L); experiment: Aphid dip test, susceptible strain; conditions: read-out: MP % kill 100 ppm
# Method: Activity against resistant (R) and susceptible (S) strains of aphid (Myzus persicae) was assessed using the following method.
# Entrapment rings of fluon were painted halfway up the inside of 4 cm lengths of glass tubing (1.5 cm diameter), and squares of insect-proof gauze were attached to one end of each tube by elastic bands. Fifteen apterous adults were then gently transferred into the tubes using a sable-hair brush, and the tube sealed with a second gauze square.
# Tubes containing aphids were dipped into insecticide solutions for 10 seconds, dried on blotting paper, and then inverted and tapped to cause treated aphids to fall to the unimmersed end of each tube. Handling mortality (usually zero or very slight) was scored after 1 hour, when aphids were transferred onto chinese cabbage leaf-discs (35 mm diameter) on an agar bed (25 mm in depth) in disposible plastic containers (30 mm high) and confined by applying a ring of fluon to the exposed lip of the container. Containers were store upright, without lids, in a constant environment facility maintained at 25°C under continuous room lighting. Mortality was assessed at 24, 48 and 72 hours. Two replicates of 15 aphids each were used at each dose rate and 5 or 6 dose rates were used per compound under test.
# The test was carried out using a susceptible strain of aphids (US1L) collected in the field in East Anglia, UK and an extremely resistant strain of aphids (794Jz) (R3 esterase, sensitive AChE) collected from glasshouses in the UK.
# The values given are % mortality corrected for control data. The control comprised the test solution without active ingredient.
# [6] = NA = lack of detectable activity
# [7] = 72 h, Tables 10, 13, 14, susceptible strain, NA = lack of detectable activity, read-out: TU LC50 (ppm/insect)
# [8] = 48 h, Tables 10, 13, 14, susceptible strain, NA = lack of detectable activity, read-out: BT LC50 (ppm/insect)
# [9] = topical 1 µl drop in acetone on female flies, kill assessed 24 and 48 hours
# [10] = 1 µl acetone drop applied ventrally to adults, kill at 48 hours, NA = lack of detectable activity
# [11] = ppm solution of test compound, 30 seconds immersion, kill at 72 hours, read-out: TU(GSS) (LC50)
# [12] = ppm solution of test compound, 60 minutes film exposure, mortality after 48 hours, read-out: BT(SUD-S) (LC50)
smiles,measurement,setting,value
"CCCC1=C(O)C(=O)c2ccccc2C1=O [-(CH2)2CH3, reference compound]",PC LD50 (µg/insect),[1]; [6],c10 µg/insect
same,LC50,[2]; [7],~1000 µg/mL
same,LC50,[3]; [8],80 µg/mL
"CCCCC1=C(O)C(=O)c2ccccc2C1=O [-(CH2)3CH3, reference compound]",MD LD50 (µg/insect),[4],c10 µg/insect
same,PC LD50 (µg/insect),[1]; [6],c5 µg/insect
same,LC50,[2]; [7],65 µg/mL
same,LC50,[3]; [8],13 µg/mL
"CCCCCC1=C(O)C(=O)c2ccccc2C1=O [-(CH2)4CH3, reference compound]",PC LD50 (µg/insect),[1]; [6],c7 µg/insect
same,LC50,[2]; [7],16 µg/mL
same,LC50,[3]; [8],17 µg/mL
"CCCCCCCCC1=C(O)C(=O)c2ccccc2C1=O [-(CH2)7CH3, reference compound]",MD LD50 (µg/insect),[4],1.9 µg/insect
same,PC LD50 (µg/insect),[1]; [6],0.78 µg/insect
same,LC50,[2]; [7],~1000 µg/mL
same,LC50,[3]; [8],19 µg/mL
"CCCCCCCCCCC1=C(O)C(=O)c2ccccc2C1=O [-(CH2)9CH3, reference compound]",PC LD50 (µg/insect),[1]; [6],1.9 µg/insect
same,LC50,[2]; [7],5.5 µg/mL
same,LC50,[3]; [8],> 100 µg/mL
"CCCCCCCCCCCC1=C(O)C(=O)c2ccccc2C1=O [-(CH2)10CH3, reference compound]",PC LD50 (µg/insect),[1]; [6],c0.4 µg/insect
same,LC50,[2]; [7],1.4 µg/mL
same,LC50,[3]; [8],> 100 µg/mL
"CCCCCCCCCCCCC1=C(O)C(=O)c2ccccc2C1=O [-(CH2)11CH3, reference compound]",LC50,[2]; [7],< 60 µg/mL
same,LC50,[3]; [8],> 100 µg/mL
same,mortality at 100 ppm,[5],0%
"CCCCCCCCCCCCCCC1=C(O)C(=O)c2ccccc2C1=O [-(CH2)13CH3, reference compound]",LC50,[2]; [7],1.3 µg/mL
"CC(C)(C)C1CCC(C2=C(O)C(=O)c3ccccc3C2=O)CC1 (stereo not drawn) [Compound B, 2-hydroxy-3-(4-t-butylcyclohexyl)-naphthalene-1,4-dione, reference compound]",MD (LD50),"[4]; house fly, in vivo",15.5
same,PC (LD50),"[1]; mustard beetle, in vivo, 2880 min",0.53
same,LC50,"[2]; 72 h, text b201, no unit printed there, read-out: TU (GSS) LC50",44 µg/mL
same,LC50,"[3]; 48 h, text b201, no unit printed there, read-out: BT(SUD-S) LC50",18 µg/mL
C=CC(C)(C)C1=C(OC(=O)CC)C(=O)c2ccccc2C1=O [Example 4],MD (LD50),[4]; [9],8.2 µg/insect
same,PC (LD50),[1]; [10],3.9 µg/insect
same,LC50,[2]; [11],18 µg/mL
same,LC50,[3]; [12],5.3 µg/mL
C=CC(C)(C)C1=C(OC(=O)CCCC)C(=O)c2ccccc2C1=O [Example 6],MD (LD50),[4]; [9],c. 2.0 µg/insect
same,PC (LD50),[1]; [10],2.1 µg/insect
same,LC50,[2]; [11],27 µg/mL
same,LC50,[3]; [12],16 µg/mL
C=CC(C)(C)C1=C(OC(=O)CCCCC)C(=O)c2ccccc2C1=O [Example 7],MD (LD50),[4]; [9],> 20 µg/insect
same,PC (LD50),[1]; [10],c. 6.0 µg/insect
same,LC50,[2]; [11],53 µg/mL
same,LC50,[3]; [12],< 100 µg/mL
C=CC(C)(C)C1=C(OC(=O)CF)C(=O)c2ccccc2C1=O [Example 9],PC (LD50),[1]; [10],0.41 µg/insect
same,LC50,"[2]; 72 h, read-out: TU(GSS) (LC50)",140 µg/mL
same,LC50,"[3]; 48 h, read-out: BT(SUD-S) (LC50)",13.4 µg/mL
C=CC(C)(C)C1=C(OC(=O)C(C)C)C(=O)c2ccccc2C1=O [Example 10],MD (LD50),[4]; [9],> 20 µg/insect
same,PC (LD50),[1]; [10],c. 6.0 µg/insect
same,LC50,[2]; [11],15 µg/mL
same,LC50,[3]; [12],35 µg/mL
C=CC(C)(C)C1=C(OC(=O)c2ccccc2)C(=O)c2ccccc2C1=O [Example 11],LC50,[2]; [11],~50 µg/mL
"C=CC(C)(C)C1=C(OC)C(=O)c2ccccc2C1=O [Example 12, 2-(1,1-dimethylprop-2-enyl)-3-methoxy-naphthalene-1,4-dione]",MD (LD50),[4]; [9],> 20 µg/insect
same,PC (LD50),[1]; [10],c. 12.0 µg/insect
"C=CC(C)(C)C1=C(O)C(OC)(OC)c2ccccc2C1=O [Example 14, 1,1-dimethoxy-2-hydroxy-3-(1,1-dimethylprop-2-enyl)-naphthalene-4-one]",MD (LD50),[4]; [9],c. 2.5 µg/insect
same,PC (LD50),[1]; [10],c. 6.0 µg/insect
same,LC50,[2]; [11],~800 µg/mL
C=CC(C)(C)C1=C(O)C(=NOC)c2ccccc2C1=O [Example 15],PC % Kill at 20 µg/insect,"[1]; mustard beetle, in vivo, topical or ocular, 48 h",35% *
same,mortality at 1000 ppm,"[3]; 48 h, read-out: BT(SUD-S) % Kill at 1000 ppm solution of test compound",97%
CCCC(C)(C)C1=C(O)C(=O)c2ccccc2C1=O [Example 16],MD (LD50),[4]; [9],8.8 µg/insect
same,PC (LD50),[1]; [10],c. 10 µg/insect
same,LC50,[2]; [11],91 µg/mL
same,LC50,[3]; [12],10 µg/mL
CCCC(C)(C)C1=C(OC(=O)CC)C(=O)c2ccccc2C1=O [Example 17],MD (LD50),[4]; [9],14 µg/insect
same,LC50,[2]; [11],50 µg/mL
CCCCCC(C)(C)C1=C(O)C(=O)c2ccccc2C1=O [Example 18],MD (LD50),[4]; [9],13 µg/insect
same,PC (LD50),[1]; [10],c. 15 µg/insect
same,LC50,[2]; [11],~100 µg/mL
same,LC50,[3]; [12],10 µg/mL
"CC1(C2=C(O)C(=O)c3ccccc3C2=O)CCCC1 [Example 24, 2-hydroxy-3-(1'-methylcyclopentyl)-naphthalene-1,4-dione]",LC50,[2]; [7],48 µg/mL
same,LC50,[3]; [8],33 µg/mL
same,mortality at 100 ppm,[5],44%
"CCC1(C2=C(O)C(=O)c3ccccc3C2=O)CCCCC1 [Example 26, 2-(1'-ethylcyclohexyl)-3-hydroxy-naphthalene-1,4-dione]",MD LD50 (µg/insect),[4],13 µg/insect
same,PC LD50 (µg/insect),[1]; [6],2.9 µg/insect
same,LC50,[2]; [7],> 100 µg/mL
same,LC50,[3]; [8],2.9 µg/mL
"C=CC1(C2=C(O)C(=O)c3ccccc3C2=O)CCCCC1 [Example 27, 2-(1'-ethenecyclohexyl)-3-hydroxy-naphthalene-1,4-dione]",MD LD50 (µg/insect),[4],6.0 µg/insect
same,PC LD50 (µg/insect),[1]; [6],4.7 µg/insect
same,LC50,[2]; [7],~80 µg/mL
same,LC50,[3]; [8],0.9 µg/mL
"O=C1C(O)=C(C2(C(F)(F)F)CCCCC2)C(=O)c2ccccc21 [Example 28, 2-hydroxy-3-(1'-trifluoromethylcyclohexyl)-naphthalene-1,4-dione]",MD LD50 (µg/insect),[4],14 µg/insect
same,LC50,[2]; [7],40 µg/mL
same,LC50,[3]; [8],24 µg/mL
same,mortality at 100 ppm,[5],5%
C=CC1(C2=C(O)C(=O)c3ccccc3C2=O)CCCC1 [Example 30],MD LD50 (µg/insect),[4],15 µg/insect
same,PC LD50 (µg/insect),[1]; [6],<20 µg/insect
same,LC50,[2]; [7],6 µg/mL
same,LC50,[3]; [8],~50 µg/mL
"CC(C)(C)CC1=C(O)C(=O)c2ccccc2C1=O [Example 35, 2-(2,2-dimethylpropyl)-3-hydroxy-naphthalene-1,4-dione]",MD LD50 (µg/insect),[4],1.2 µg/insect
same,PC LD50 (µg/insect),[1]; [6],4.6 µg/insect
same,LC50,[3]; [8],~12 µg/mL
"CC(C)(C)CCC1=C(O)C(=O)c2ccccc2C1=O [Example 36, 2-(3,3-dimethylbutyl)-3-hydroxy-naphthalene-1,4-dione]",PC LD50 (µg/insect),[1]; [6],1.3 µg/insect
same,LC50,[2]; [7],36 µg/mL
same,LC50,[3]; [8],~7 µg/mL
same,mortality at 100 ppm,[5],~24%
"CC(C)(C)CCCC1=C(O)C(=O)c2ccccc2C1=O [Example 37, 2-(4,4-dimethylpentyl)-3-hydroxy-naphthalene-1,4-dione]",LC50,[2]; [7],2.9 µg/mL
same,LC50,[3]; [8],16 µg/mL
same,mortality at 100 ppm,[5],~70%
"CC(C)(C)C=CC1=C(O)C(=O)c2ccccc2C1=O [Example 42, 2-(3,3-dimethyl-but-1-enyl)-3-hydroxy-naphthalene-1,4-dione]",PC LD50 (µg/insect),[1]; [6],3.6 µg/insect
same,LC50,[2]; [7],~100 µg/mL
same,LC50,[3]; [8],17 µg/mL
"CC(C)(C)C=CCCCC1=C(O)C(=O)c2ccccc2C1=O [Example 43, 2-(6,6-dimethylhep-4-enyl)-3-hydroxy-naphthalene-1,4-dione]",LC50,[2]; [7],11.5 µg/mL
same,LC50,[3]; [8],~60 µg/mL
same,mortality at 100 ppm,[5],~100%
C=CC(C)(C)CCC1=C(O)C(=O)c2ccccc2C1=O [Example 50],LC50,[2]; [7],6.5 µg/mL
same,LC50,[3]; [8],16 µg/mL
